Data: PubChem BioAssay (NCI)
Values joined by “and” are separate entries in the source; they are usually repeats but may differ in a detail not shown here. Equal entries are not always repeated.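 All cell lines were grown in 96-well plates and treated with compound for 48 hours. GI50: concentration for 50% inhibition of growth. At the TGI there is no net growth.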

Assays:
Assay in all cases: NCI tumour cell line growth inhibition, 48 h
[1] = tested on: PC-3 prostate
[2] = tested on: SK-MEL-5 melanoma
[3] = tested on: MCF7 breast
[4] = tested on: MDA-MB-435
[5] = tested on: HCT-116 colon
[6] = tested on: HOP-62 NSCLC
[7] = tested on: SK-MEL-28 melanoma
[8] = tested on: SF-268 CNS
[9] = tested on: SNB-19 CNS
[10] = tested on: HCC-2998 colon

Row | SMILES | TGI [1] [µM] | TGI [2] [µM] | TGI [3] | TGI [4] [µM] | TGI [5] [µM] | TGI [6] [µM] | TGI [7] [µM] | TGI [8] [µM] | TGI [9] [µM] | TGI [10] [µM] | GI50 [1] | GI50 [2] [µM] | GI50 [3] | GI50 [4] [µM] | GI50 [5] | GI50 [6] [µM] | GI50 [7] [µM] | GI50 [8] | GI50 [9] [µM] | GI50 [10] [µM]
1 | O=C[C@@H](CO)O[C@H](C=O)n1cnc2c(=O)[nH]cnc21 | 1780 | 1150 | 409 µM | 2300 | 1270 | 630 | 1530 | 1840 | 2150 | 1200 |  |  |  |  |  |  |  |  |  | 
2 | N#CC1=C(N)NC(=O)NC12Nc1ccccc1N2 | > 100 | > 100 | > 100 µM | > 100 | > 100 | > 100 | > 100 | > 100 | > 100 | > 100 | > 100 µM | > 100 | > 100 µM | > 100 | > 100 µM | > 100 | > 100 | > 100 µM | > 100 | > 100
3 | COc1cc(CNc2oc(-c3ccccc3)c(-c3ccccc3)c2C#N)cc(CN2CCN(C)CC2)c1O | 4.09 | 3.05 | 3.07 µM | 3.26 | 4.17 | 4.21 | 3.24 | 3.7 | 3.33 | 3.36 | 1.87 µM | 1.62 | 1.46 µM | 1.77 | 1.55 µM | 1.92 | 1.78 | 1.79 µM | 1.81 | 1.79
4 | CC/C(=C/c1ccc(OC)cc1OC)[N+](=O)[O-] | 13.1 | 14 | 3.92 µM | 5.7 | 3.23 | 7.14 | 6.51 | 12.7 | 16.6 | 15.8 | 3.84 µM | 4.12 | 0.852 µM | 1.97 | 1.65 µM | 2.38 | 2.51 | 3.28 µM | 4.35 | 4.32
5 | Cc1ccc(C(=O)NC2CC2)cc1-c1ccc2[nH]ncc2c1 | > 25 | > 25 | > 25 µM | > 25 | > 25 | > 25 | > 25 | > 25 | > 25 | > 25 | > 25 µM | > 25 | > 25 µM | > 25 | > 25 µM | > 25 | > 25 | > 25 µM | > 25 | > 25
6 | N#Cc1cccc(C2C3=C(COC3=O)N(CCO)c3cc4c(cc32)OCO4)c1 (stereo not drawn) | > 50 | > 50 | > 50 µM | 1.03 | > 50 | > 50 | > 50 | > 50 | > 50 | > 50 | 1.62 µM | 1.07 | 0.942 µM | 0.154 | 1.43 µM | 2.1 | 25.5 | 3.99 µM | 2.69 | 4.6
7 | CC1SC(c2ccc(Cl)cc2Cl)N(NC(=O)C(O)c2ccccc2)C1=O (stereo not drawn) | > 100 | > 100 | > 100 µM | > 100 | > 100 | > 100 | > 100 | > 100 | > 100 | > 100 | 42.3 µM | 58.6 | 57 µM | 74.7 | 62 µM | > 100 | 76.1 | 81.3 µM | > 100 | > 100
8 | O=c1[nH]c(=O)n(C2CC(O)C(CO)O2)cc1C(F)(F)F (stereo not drawn) | > 100 | > 100 |  | > 100 | > 100 | > 100 | > 100 | > 100 | > 100 | > 100 | > 100 µM | 0.399 | 0.038 µM | 5.31 | 1.7 µM | 3.68 | > 62.1 | 3.14 µM | 2.96 | 11.3
9 | N#Cc1cccc(N2C(=O)C3C4C=CC(C3C2=O)C2C(=O)N(c3cccc(C#N)c3)C(=O)C42)c1 (stereo not drawn) | > 100 | > 63.1 | > 100 µM | > 100 | 31.6 | 38.1 | > 63.1 | 49.7 | > 80.1 | > 56.2 |  |  |  |  |  |  |  |  |  | 
10 | COc1ccc(S(=O)(=O)N(C(C)=O)c2ccccc2/C=C/c2cc[n+]([O-])cc2)cc1 | > 10 | > 10 | > 10 µM | 0.576 | > 10 | > 10 | > 10 | > 10 | > 10 | > 10 | 0.688 µM | 0.703 | 0.428 µM | 0.143 | 0.542 µM | 0.86 | > 4.8 | 1.71 µM | 0.418 | 2.27
11 | C=C(C)[C@@H]1CC[C@]2(C(=O)NS(=O)(=O)c3ccccc3)CC[C@]3(C)[C@H](CC[C@@H]4[C@@]5(C)CC[C@H](OC(=O)NS(=O)(=O)c6ccccc6)C(C)(C)[C@@H]5CC[C@]43C)[C@@H]12 | 20.6 | 2.98 | 10.8 µM | 4.89 | 3.56 | 6.83 | 5.32 | 32.1 | 18.2 | 2.85 | 2.11 µM | 1.48 | 2.93 µM | 1.77 | 1.47 µM | 2.33 | 2.05 | 3.03 µM | 3.42 | 1.42
12 | COc1cc(NCCCCCN=C(N)NC(N)=NC(C)C)c2ncccc2c1 | 13.8 | 3.01 | 0.16 µM | 14.7 | 10.5 | 19.1 | 10.4 | 13.8 | 12.8 | 4.96 | 0.972 µM | 1.44 | 0.0313 µM | 3.61 | 0.392 µM | 5.14 | 2.92 | 0.689 µM | 2.56 | 0.952
13 | O=C(Nc1cccc(C(F)(F)F)c1)Oc1ccc(Cl)c2cccnc12 | 14.2 | 2.88 | 6.77 µM | 9.5 | 8.03 | 11 | 17.8 | 16.6 | > 32.8 | 12.8 | 0.607 µM | 1.31 | 1.46 µM | 1.89 | 0.615 µM | 2.99 | 4.29 | 1.36 µM | 2.52 | 3.51
14 | COC(=O)[C@H](Cc1cn(C)cn1)NC(=O)[C@H](Cc1ccccc1)NC(=O)Nc1cc(C(F)(F)F)cc(C(F)(F)F)c1 | 25.8 | 30.7 | 9.73 µM and 29.4 µM | 29.4 | 10.9 | 31.9 | 35.2 | 23.8 | 28.3 |  | 9.17 µM and 12.4 µM | 16.2 | 2.58 µM and 5.03 µM | 15.3 | 3.1 µM and 3.54 µM | 17.5 | 17.9 | 4.26 µM and 10.2 µM | 14.2 | 3.86
